Measured values published in publication PMC7285913, “In vitro hepatic biotransformation of the algal toxin pectenotoxin-2” (Toxicon: X, 2020).

Key:
[1] = ref Alexander et al., 2009, cited from earlier work; for provisional toxicity equivalent factor (TEF): EFSA
primary rat hepatocytes [2] = experiment: Calculation of the hepatic clearance and maximum bioavailability of PTX-2 in rats from hepatocyte half-life; type: in vitro ADME; conditions: for CLb: predicted in vivo hepatic blood clearance in rat, well-stirred model, fub = 1; for CLint: scaled from rat hepatocyte assay
Protocol: The in vitro assay clearance (CLassay) of PTX-2 was calculated from the hepatocyte incubations run with first order kinetics (CLassay = Vassay × ln2/t1/2 [Lh^−1]) using the assay volume (Vassay) and the disappearance half-life (t1/2) of the parent compound as determined from the slope of the linear regression from a semi-logarithmic concentration vs. time plot ([Obach, 1999]). […] The in vivo hepatic blood clearance (CLb) was calculated from CLint by applying the non-restricted well-stirred model (CLb = CLint x Q/(CLint + Q) [L (h x kg)^−1]) ([Houston, 1994]), considering the hepatic blood flow in rat (Q ~ 4.2 L (h x kg)^−1) ([Lin and Lu, 1998]). Potential binding to blood components in vivo was not considered in this study and thus the fraction unbound in blood (fub) set to 1. The maximum bioavailability (Fmax) of PTX-2 in rats was estimated (Fmax = Fa x (1 – (CLb/Q) under the assumption of complete absorption from the gastrointestinal tract (Fa = 1) ([De Buck et al., 2007]) and negligible non-hepatic elimination. Fmax was ranked according to the criteria for low (0–10%), moderate (10–30%) and high bioavailability (up to 100%) ([Obach, 1996]).

mice [3] = conditions: intestinal toxicity in mice; ref Alexander et al., 2009; cited from earlier work
primary rat hepatocytes [4] = experiment: In vitro hepatocyte assay under kinetic conditions (PTX-2 disappearance); type: in vitro ADME, Wistar rats
Protocol: (§1) Isolated rat liver cells were prepared by a two-step collagenase ex vivo perfusion from male Wistar rats, weighing 250–300 g and kept under routine laboratory conditions with free access to standard laboratory pelleted feed and water ([Seglen, 1976]). The hepatocytes were separated by gradient centrifugation ([Fæste and Moldes-Anaya, 2016]), suspended in PBS, and stored for up to 1 h on ice before use ([Sidelmann et al., 1996], [Gebhardt et al., 2003]). Cell viability was determined microscopically (Leica DMIL microscope; Leica Microsystems GmBH, Wetzlar, Germany), using Trypan blue staining and a Neubauer-counting chamber. About 2.5 × 10^8 living cells per liver were obtained on average, and only preparations with viabilities >92% were used in the metabolism experiments.
(§2) The hepatocyte suspension was diluted with KRB–HEPES buffer pH 7.4 (Krebs-Ringer buffer containing 145 mM NaCl, 5.4 mM KCl, 0.8 mM MgSO4, 0.33 mM Na2HPO4, 0.34 mM KH2PO4, 2 mM CaCl2, and 20 mM HEPES) to a final assay concentration of 2.5 × 10^6 cells/mL. The incubations were performed in capped round-bottom glass tubes in a total assay volume of 5 mL. After pre-incubation for 5 min at 37 °C in a shaking water bath, 5–25 μL of a PTX-2 stock solution containing 1 mg/mL PTX-2 in MeOH were added, resulting in initial concentrations of 1–5 μg/mL PTX-2 in the assay. Aliquots (300 μL) were taken after 0, 2.5, 5, 7.5, 10, 15, 30, and 60 min of incubation and directly transferred into 300 μL ice-cold acetonitrile (ACN) in Eppendorf tubes. Two control samples were included in the experiments, a blank matrix control and a PTX-2 stability control. After centrifuging all samples at 16,000 g for 1 min (5415D centrifuge; Eppendorf AG, Hamburg, Germany), the supernatants were transferred to HPLC vials for analysis by liquid chromatography mass spectrometry (LC-MS) to determine the half-life of PTX-2 in rat hepatocytes.
(§3) LC-MS analyses of centrifuged aliquots from the kinetic assays were performed under reversed phase conditions using a Symmetry C18 column (5 μm, 3.9 × 150 mm) (Waters, Milford, MA, USA) and a binary LC pump (Finnigan Mod. 250) coupled to an Autosampler Plus (Thermo Electron Corporation, San Jose, CA, USA). 5–20 μL samples were injected and eluted using a linear gradient starting with ACN/water (40:60, v/v, both containing 0.1% formic acid and 2 mM ammonium formate) and rising to 100% ACN in 20 min. Isocratic elution with 100% ACN was maintained for 5 min before the eluent was returned to the starting conditions. The flow rate was set to 1 mL/min.

[5] = as above; type: in vitro ADME, Wistar rats; conditions: male, Wistar, primary rat hepatocytes in suspension, pH 7.4, primary rat hepatocytes, read-out: t½,assay (converted)
Protocol: as §1, §2, §3

mice [6] = conditions: single oral doses of 0.3, 1 and 5 mg/kg bw, preliminary data, ref Burgess and Shaw, 2001, Alexander et al., 2009; cited from earlier work
mussels = conditions: in mussels, in contrast to PTX-2; ref MacKenzie et al., 2005; cited from earlier work
mice [7] = conditions: mouse, ref Suzuki et al., 2006, cited from earlier work

CC1=C\[C@H](C)C[C@@]2(C)CC[C@@H](O2)[C@@]23CC[C@@](CO)(C[C@@H](O2)[C@H]2O[C@](C)(CC2=O)[C@@H](O)[C@@H]2CC[C@@]4(CCC[C@H](O4)[C@@H](C)C(=O)O[C@@H]4C[C@@H]([C@@]5(O)OCC[C@@H](C)[C@H]5O)O[C@@H]4\C=C\1)O2)O3 [PTX-1, reference compound]
provisional toxicity equivalent factor (TEF) [1]: 1

CC1=CC(C)CC2(C)CCC(O2)C23CCC(C)(CC(O2)C2OC(C)(CC2=O)C(O)C2CCC4(CCCC(O4)C(C)C(=O)OC4CC(C5(O)OCCC(C)C5O)OC4C=C1)O2)O3 (stereo not drawn) [PTX-2, pectenotoxin-2]
CLb (primary rat hepatocytes [2]; PTX-2 1.4 μg/mL): 47.3 mL/min/kg | CLint (primary rat hepatocytes [2]; PTX-2 1.4 μg/mL): 146 mL/min/kg | CLb (primary rat hepatocytes [2]; PTX-2 2.6 μg/mL): 50 mL/min/kg | CLint (primary rat hepatocytes [2]; PTX-2 2.6 μg/mL): 174 mL/min/kg | CLb (primary rat hepatocytes [2]; PTX-2 4.8 μg/mL): 47 mL/min/kg | CLint (primary rat hepatocytes [2]; PTX-2 4.8 μg/mL): 143 mL/min/kg | compound predicted to remain unmetabolized after the first pass through the liver (primary rat hepatocytes [2]; after oral uptake, rat): up to 32% | predicted hepatic blood clearance (rank) (primary rat hepatocytes [2]; rat, negligible protein binding and unrestricted absorption assumed): moderate | lowest-observed-adverse-effect-level (LOAEL) (mice [3]): 250 μg/kg bw | PTX-2 remaining unchanged (primary rat hepatocytes [4]; after 30 min of incubation, all concentrations, rat hepatocytes): 17–20% | metabolism in freshly isolated rat hepatocytes (primary rat hepatocytes [4]; freshly isolated rat hepatocytes): rapidly metabolized | half-life at 1.4 μg/mL ([5]; PTX-2 1.4 μg/mL): 11.4 min | half-life at 2.6 μg/mL ([5]; PTX-2 2.6 μg/mL): 9.6 min | half-life at 4.8 μg/mL ([5]; PTX-2 4.8 μg/mL): 12 min | metabolic elimination (mice [6]): considerable metabolic elimination | uptake from the gastrointestinal tract (mice [6]): low uptake from the gastrointestinal tract | provisional toxicity equivalent factor (TEF) [1]: 1 | acute reference dose (ARfD) ([1]; established by EFSA): 0.8 μg PTX-2 equivalents/kg body weight (bw)

CC1=C\[C@H](C)C[C@@]2(C)CC[C@@H](O2)[C@@]23CC[C@@](C(=O)O)(C[C@@H](O2)[C@H]2O[C@](C)(CC2=O)[C@@H](O)[C@@H]2CC[C@@]4(CCC[C@H](O4)[C@@H](C)C(=O)O[C@@H]4C[C@@H]([C@@]5(O)OCC[C@@H](C)[C@H]5O)O[C@@H]4\C=C\1)O2)O3 [PTX-6]
provisional toxicity equivalent factor (TEF) [1]: 1

CC1=C\[C@H](C)C[C@@]2(C)CC[C@@H](O2)[C@@]23CC[C@@](CO)(C[C@@H](O2)[C@H]2O[C@](C)(CC2=O)[C@@H](O)[C@@H]2CC[C@]4(CCC[C@H](O4)[C@@H](C)C(=O)O[C@@H]4C[C@@H]([C@@]5(O)OCC[C@@H](C)[C@H]5O)O[C@@H]4\C=C\1)O2)O3 [PTX-4]
provisional toxicity equivalent factor (TEF) [1]: 1

CC1=C\[C@H](C)C[C@@]2(C)CC[C@@H](O2)[C@@]23CC[C@@](C=O)(C[C@@H](O2)[C@H]2O[C@](C)(CC2=O)[C@@H](O)[C@@H]2CC[C@@]4(CCC[C@H](O4)[C@@H](C)C(=O)O[C@@H]4C[C@@H]([C@@]5(O)OCC[C@@H](C)[C@H]5O)O[C@@H]4\C=C\1)O2)O3 [PTX-3]
provisional toxicity equivalent factor (TEF) [1]: 1

CC1=C\[C@H](C)C[C@@]2(C)CC[C@@H](O2)[C@@]23CC[C@@](C)(C[C@@H](O2)[C@H]2O[C@](C)(CC2=O)[C@@H](O)[C@@H]2CC[C@@]4(CCC[C@H](O4)[C@@H](C)C(=O)O[C@@H]4[C@H](O)[C@@H]([C@@]5(O)OCC[C@@H](C)[C@H]5O)O[C@@H]4\C=C\1)O2)O3 [PTX-11, 34 S-hydroxypectenotoxin-2]
resistance to enzymatic hydrolysis (mussels): relatively resistant to enzymatic hydrolysis | effects after oral application (mice [7]; as much as 5 mg/kg bw p. o.): no effects were detected | LD50 (mice [7]; i. p.): 0.24 mg/kg bw | provisional toxicity equivalent factor (TEF) [1]: 1

CC(/C=C/[C@H]1O[C@H]([C@@]2(O)OCC[C@@H](C)[C@H]2O)C[C@H]1O)=C\[C@H](C)C[C@@]1(C)CC[C@H]([C@@]23CC[C@@](C)(C[C@H]([C@H]4O[C@@](C)([C@@H](O)[C@@H]5CCC6(CCC[C@@H]([C@@H](C)C(=O)O)O6)O5)CC4=O)O2)O3)O1 (stereo partly drawn) [PTX-2 seco acid (SA), pectenotoxin-2 seco acid]
relative toxicity ([1]; compared with PTXs given TEF of 1): much less toxic
